This is an account of results in patent publication US20220389061A1, “IMMUNOMODULATORS” (priority 2019, published 2022).

Structures are written as SMILES. pIC50: −log10 of the molar value. Starred links: 1 amine or outer side, 2 acyl side, 3 side chain; linkers in the order of their positions; H or OH if unused. Positions of bridges follow the written chain, without caps; N, C: chain ends. Non-standard residues stand in square brackets, D forms with d. Residues, ends and D or L forms follow the SMILES beside them. Groups on a side chain read outwards from the residue. *: point of attachment. Trp(1-CH2COOH) = N[C@@H](Cc1cn(CC(=O)O)c2ccccc12)C(=O)O; X18 = O=[N+]([O-])c1ccc(NC(=S)*)c(Cl)c1; X63 = COc1cc([N+](=O)[O-])ccc1NC(=S)*; X67 = S=C(Nc1c(Cl)c(Cl)cc(Cl)c1Cl)*; Hyp = O=C(O)[C@@H]1C[C@@H](O)CN1; X56 = COc1cc([N+](=O)[O-])ccc1N*; X78 = S=C(Nc1c(Cl)cc(Cl)cc1Cl)*; X28 = Cc1ccc(Cl)c(NC(=S)*)c1Cl; X30 = FC(F)(F)c1ccc(N*)c(Cl)c1; NMeNle = CCCC[C@H](NC)C(=O)O; X90 = Fc1cc(F)c(N*)c(F)c1; NMeA = CN[C@@H](C)C(=O)O; Dab = NCC[C@H](N)C(=O)O; Dap = NC[C@H](N)C(=O)O; X15 = Cc1ccc(Cl)cc1N*; X51 = Cc1cccc(Cl)c1N*; CO = O=C([*:1])[*:2]

What is called pIC50 is −log10 of the IC50, conventionally taken in molar units.

T1 sequence (Q9NZQ7 18-239): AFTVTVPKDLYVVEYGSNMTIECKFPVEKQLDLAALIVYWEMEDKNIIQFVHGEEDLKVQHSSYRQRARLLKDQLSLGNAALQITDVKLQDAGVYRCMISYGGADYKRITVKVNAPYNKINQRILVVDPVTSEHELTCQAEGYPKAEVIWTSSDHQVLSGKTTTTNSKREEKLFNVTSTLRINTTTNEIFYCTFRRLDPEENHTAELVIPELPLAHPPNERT

The first assay has as its target T1, PD-1/PD-L1 (Homo sapiens, UniProt Q9NZQ7).
T1 construct: TVMV protease site linker (C); made in house; host or cells: HEK293T cells
The assay is described as follows: PD-1/PD-L1 Homogenous Time-Resolved Fluorescence (HTRF) binding assay.
Conditions: not given
Summed up: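 Compounds preincubated 15 min with PD-L1-His (10 nM final), then PD-1-Ig (20 nM final) added for 15 min in dPBS with 0.1% BSA, 0.05% Tween-20. Detection by Eu-cryptate anti-Ig (1 nM) and APC anti-His (20 nM) HTRF.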
On the technique in general: In TR-FRET formats the signal depends on donor and acceptor labels being close together.
Take `CCCC[C@H]1C(=O)N(C)[C@@H](CCCC)C(=O)N[C@@H](CC(C)C)C(=O)N[C@H](C(=O)NCC(N)=O)CSCC(=O)N[C@@H](Cc2ccc(O)cc2)C(=O)N(C)[C@@H](C)C(=O)N[C@@H](CC(N)=O)C(=O)N2CCC[C@H]2C(=O)N[C@@H](CNC(=S)Nc2ccc([N+](=O)[O-])cc2Cl)C(=O)N[C@@H](CC(C)C)C(=O)N2C[C@H](O)C[C@H]2C(=O)N[C@@H](Cc2c[nH]c3ccccc23)C(=O)N[C@@H](CCNC(=S)Nc2ccc([N+](=O)[O-])cc2Cl)C(=O)N[C@@H](Cc2cn(CC(=O)O)c3ccccc23)C(=O)N1C` [Example 1103] ({CH2CO}-Y[NMeA]NP[Dap](X18)L[Hyp]W[Dab](X18)[Trp(1-CH2COOH)][NMeNle][NMeNle]LCG-NH2; thioether N-14): the pIC50 is 8.19.
Still for that read-out and setting: as for `CCCC[C@H]1C(=O)N(C)[C@@H](CCCC)C(=O)N[C@@H](CC(C)C)C(=O)N[C@H](C(=O)NCC(N)=O)CSCC(=O)N[C@@H](Cc2ccc(O)cc2)C(=O)N(C)[C@@H](C)C(=O)N[C@@H](CC(N)=O)C(=O)N2CCC[C@H]2C(=O)N[C@@H](CNC(=S)Nc2ccc([N+](=O)[O-])cc2OC)C(=O)N[C@@H](CC(C)C)C(=O)N2C[C@H](O)C[C@H]2C(=O)N[C@@H](Cc2c[nH]c3ccccc23)C(=O)N[C@@H](CCNC(=S)Nc2ccc([N+](=O)[O-])cc2OC)C(=O)N[C@@H](Cc2cn(CC(=O)O)c3ccccc23)C(=O)N1C` [Example 1104] ({CH2CO}-Y[NMeA]NP[Dap](X63)L[Hyp]W[Dab](X63)[Trp(1-CH2COOH)][NMeNle][NMeNle]LCG-NH2; thioether N-14), the figure is 7.92.

Still in this assay, the particulars now being: PD-L1-His 10 nM pre-incubated with inhibitor, PD-1-Ig 20 nM; read-out: HTRF IC50.
In the case of `CCCC[C@H]1C(=O)N(C)[C@@H](CCCC)C(=O)N[C@@H](CC(C)C)C(=O)N[C@H](C(=O)NCC(N)=O)CSCC(=O)N[C@@H](Cc2ccc(O)cc2)C(=O)N(C)[C@@H](C)C(=O)N[C@@H](CC(N)=O)C(=O)N2CCC[C@H]2C(=O)N[C@@H](CNC(=O)Nc2ccc(C(F)(F)F)cc2Cl)C(=O)N[C@@H](CC(C)C)C(=O)N2C[C@H](O)C[C@H]2C(=O)N[C@@H](Cc2c[nH]c3ccccc23)C(=O)N[C@@H](CCN)C(=O)N[C@@H](Cc2cn(CC(=O)O)c3ccccc23)C(=O)N1C` [Example 1105] ({CH2CO}-Y[NMeA]NP[Dap]([CO-X30])L[Hyp]W[Dab][Trp(1-CH2COOH)][NMeNle][NMeNle]LCG-NH2; thioether N-14), the pIC50 is 7.59.
Still for that read-out and setting: as for `CCCC[C@H]1C(=O)N(C)[C@@H](CCCC)C(=O)N[C@@H](CC(C)C)C(=O)N[C@H](C(=O)NCC(N)=O)CSCC(=O)N[C@@H](Cc2ccc(O)cc2)C(=O)N(C)[C@@H](C)C(=O)N[C@@H](CC(N)=O)C(=O)N2CCC[C@H]2C(=O)N[C@@H](CNC(=O)Nc2cc(Cl)ccc2C)C(=O)N[C@@H](CC(C)C)C(=O)N2C[C@H](O)C[C@H]2C(=O)N[C@@H](Cc2c[nH]c3ccccc23)C(=O)N[C@@H](CCN)C(=O)N[C@@H](Cc2cn(CC(=O)O)c3ccccc23)C(=O)N1C` [Example 1106] ({CH2CO}-Y[NMeA]NP[Dap]([CO-X15])L[Hyp]W[Dab][Trp(1-CH2COOH)][NMeNle][NMeNle]LCG-NH2; thioether N-14), the figure is 8.00; as for `CCCC[C@H]1C(=O)N(C)[C@@H](CCCC)C(=O)N[C@@H](CC(C)C)C(=O)N[C@H](C(=O)NCC(N)=O)CSCC(=O)N[C@@H](Cc2ccc(O)cc2)C(=O)N(C)[C@@H](C)C(=O)N[C@@H](CC(N)=O)C(=O)N2CCC[C@H]2C(=O)N[C@@H](CNC(=O)Nc2c(C)cccc2Cl)C(=O)N[C@@H](CC(C)C)C(=O)N2C[C@H](O)C[C@H]2C(=O)N[C@@H](Cc2c[nH]c3ccccc23)C(=O)N[C@@H](CCNC(=O)Nc2c(C)cccc2Cl)C(=O)N[C@@H](Cc2cn(CC(=O)O)c3ccccc23)C(=O)N1C` [Example 1107] ({CH2CO}-Y[NMeA]NP[Dap]([CO-X51])L[Hyp]W[Dab]([CO-X51])[Trp(1-CH2COOH)][NMeNle][NMeNle]LCG-NH2; thioether N-14), 9.30; as for `CCCC[C@H]1C(=O)N(C)[C@@H](CCCC)C(=O)N[C@@H](CC(C)C)C(=O)N[C@H](C(=O)NCC(N)=O)CSCC(=O)N[C@@H](Cc2ccc(O)cc2)C(=O)N(C)[C@@H](C)C(=O)N[C@@H](CC(N)=O)C(=O)N2CCC[C@H]2C(=O)N[C@@H](CNC(=O)Nc2ccc([N+](=O)[O-])cc2OC)C(=O)N[C@@H](CC(C)C)C(=O)N2C[C@H](O)C[C@H]2C(=O)N[C@@H](Cc2c[nH]c3ccccc23)C(=O)N[C@@H](CCN)C(=O)N[C@@H](Cc2cn(CC(=O)O)c3ccccc23)C(=O)N1C` [Example 1108] ({CH2CO}-Y[NMeA]NP[Dap]([CO-X56])L[Hyp]W[Dab][Trp(1-CH2COOH)][NMeNle][NMeNle]LCG-NH2; thioether N-14), 8.62.
Still for that read-out and setting: as for `CCCC[C@H]1C(=O)N(C)[C@@H](CCCC)C(=O)N[C@@H](CC(C)C)C(=O)N[C@H](C(=O)NCC(N)=O)CSCC(=O)N[C@@H](Cc2ccc(O)cc2)C(=O)N(C)[C@@H](C)C(=O)N[C@@H](CC(N)=O)C(=O)N2CCC[C@H]2C(=O)N[C@@H](CNC(=S)Nc2c(Cl)cc(Cl)cc2Cl)C(=O)N[C@@H](CC(C)C)C(=O)N2C[C@H](O)C[C@H]2C(=O)N[C@@H](Cc2c[nH]c3ccccc23)C(=O)N[C@@H](CCN)C(=O)N[C@@H](Cc2cn(CC(=O)O)c3ccccc23)C(=O)N1C` [Example 1109] ({CH2CO}-Y[NMeA]NP[Dap](X78)L[Hyp]W[Dab][Trp(1-CH2COOH)][NMeNle][NMeNle]LCG-NH2; thioether N-14), the figure is 8.82.
Same read-out and setting: as for `CCCC[C@H]1C(=O)N(C)[C@@H](CCCC)C(=O)N[C@@H](CC(C)C)C(=O)N[C@H](C(=O)NCC(N)=O)CSCC(=O)N[C@@H](Cc2ccc(O)cc2)C(=O)N(C)[C@@H](C)C(=O)N[C@@H](CC(N)=O)C(=O)N2CCC[C@H]2C(=O)N[C@@H](CNC(=S)Nc2c(Cl)c(Cl)cc(Cl)c2Cl)C(=O)N[C@@H](CC(C)C)C(=O)N2C[C@H](O)C[C@H]2C(=O)N[C@@H](Cc2c[nH]c3ccccc23)C(=O)N[C@@H](CCN)C(=O)N[C@@H](Cc2cn(CC(=O)O)c3ccccc23)C(=O)N1C` [Example 1110] ({CH2CO}-Y[NMeA]NP[Dap](X67)L[Hyp]W[Dab][Trp(1-CH2COOH)][NMeNle][NMeNle]LCG-NH2; thioether N-14), the figure is 8.70; as for `CCCC[C@H]1C(=O)N(C)[C@@H](CCCC)C(=O)N[C@@H](CC(C)C)C(=O)N[C@H](C(=O)NCC(N)=O)CSCC(=O)N[C@@H](Cc2ccc(O)cc2)C(=O)N(C)[C@@H](C)C(=O)N[C@@H](CC(N)=O)C(=O)N2CCC[C@H]2C(=O)N[C@@H](CNC(=S)Nc2ccc([N+](=O)[O-])cc2Cl)C(=O)N[C@@H](CC(C)C)C(=O)N2C[C@H](O)C[C@H]2C(=O)N[C@@H](Cc2c[nH]c3ccccc23)C(=O)N[C@@H](CCN)C(=O)N[C@@H](Cc2cn(CC(=O)O)c3ccccc23)C(=O)N1C` [Example 1111] ({CH2CO}-Y[NMeA]NP[Dap](X18)L[Hyp]W[Dab][Trp(1-CH2COOH)][NMeNle][NMeNle]LCG-NH2; thioether N-14), 8.05; as for `CCCC[C@H]1C(=O)N(C)[C@@H](CCCC)C(=O)N[C@@H](CC(C)C)C(=O)N[C@H](C(=O)NCC(N)=O)CSCC(=O)N[C@@H](Cc2ccc(O)cc2)C(=O)N(C)[C@@H](C)C(=O)N[C@@H](CC(N)=O)C(=O)N2CCC[C@H]2C(=O)N[C@@H](CNC(=S)Nc2ccc([N+](=O)[O-])cc2OC)C(=O)N[C@@H](CC(C)C)C(=O)N2C[C@H](O)C[C@H]2C(=O)N[C@@H](Cc2c[nH]c3ccccc23)C(=O)N[C@@H](CCN)C(=O)N[C@@H](Cc2cn(CC(=O)O)c3ccccc23)C(=O)N1C` [Example 1112] ({CH2CO}-Y[NMeA]NP[Dap](X63)L[Hyp]W[Dab][Trp(1-CH2COOH)][NMeNle][NMeNle]LCG-NH2; thioether N-14), 8.92.
With `CCCC[C@H]1C(=O)N(C)[C@@H](CCCC)C(=O)N[C@@H](CC(C)C)C(=O)N[C@H](C(=O)NCC(N)=O)CSCC(=O)N[C@@H](Cc2ccc(O)cc2)C(=O)N(C)[C@@H](C)C(=O)N[C@@H](CC(N)=O)C(=O)N2CCC[C@H]2C(=O)N[C@@H](CNC(=S)Nc2c(Cl)ccc(C)c2Cl)C(=O)N[C@@H](CC(C)C)C(=O)N2C[C@H](O)C[C@H]2C(=O)N[C@@H](Cc2c[nH]c3ccccc23)C(=O)N[C@@H](CCNC(=S)Nc2c(Cl)ccc(C)c2Cl)C(=O)N[C@@H](Cc2cn(CC(=O)O)c3ccccc23)C(=O)N1C` [Example 1113] ({CH2CO}-Y[NMeA]NP[Dap](X28)L[Hyp]W[Dab](X28)[Trp(1-CH2COOH)][NMeNle][NMeNle]LCG-NH2; thioether N-14), the pIC50 is 8.03.
For the compound `CCCC[C@H]1C(=O)N(C)[C@@H](CCCC)C(=O)N[C@@H](CC(C)C)C(=O)N[C@H](C(=O)NCC(N)=O)CSCC(=O)N[C@@H](Cc2ccc(O)cc2)C(=O)N(C)[C@@H](C)C(=O)N[C@@H](CC(N)=O)C(=O)N2CCC[C@H]2C(=O)N[C@@H](CNC(=O)Nc2c(F)cc(F)cc2F)C(=O)N[C@@H](CC(C)C)C(=O)N2C[C@H](O)C[C@H]2C(=O)N[C@@H](Cc2c[nH]c3ccccc23)C(=O)N[C@@H](CCNC(=O)Nc2c(C)cccc2Cl)C(=O)N[C@@H](Cc2cn(CC(=O)O)c3ccccc23)C(=O)N1C` [Example 1114] ({CH2CO}-Y[NMeA]NP[Dap]([CO-X90])L[Hyp]W[Dab]([CO-X51])[Trp(1-CH2COOH)][NMeNle][NMeNle]LCG-NH2; thioether N-14), the negative logarithm of the IC50 (pIC50) was 8.60.
Consider `CCCC[C@H]1C(=O)N(C)[C@@H](CCCC)C(=O)N[C@@H](CC(C)C)C(=O)N[C@H](C(=O)NCC(N)=O)CSCC(=O)N[C@@H](Cc2ccc(O)cc2)C(=O)N(C)[C@@H](C)C(=O)N[C@@H](CC(N)=O)C(=O)N2CCC[C@H]2C(=O)N[C@@H](CN)C(=O)N[C@@H](CC(C)C)C(=O)N2C[C@H](O)C[C@H]2C(=O)N[C@@H](Cc2c[nH]c3ccccc23)C(=O)N[C@@H](CCNC(=O)Nc2ccc(C(F)(F)F)cc2Cl)C(=O)N[C@@H](Cc2cn(CC(=O)O)c3ccccc23)C(=O)N1C` [Example 1115] ({CH2CO}-Y[NMeA]NP[Dap]L[Hyp]W[Dab]([CO-X30])[Trp(1-CH2COOH)][NMeNle][NMeNle]LCG-NH2; thioether N-14), for which the pIC50 is 8.00.
